{"source": "patent US10072034B2", "about": "“Kinase inhibitors” (Respivert Limited, priority 2016, dated 2018)", "key": {"[1]": {"assay": "Solubility in fasted-state simulated colonic fluid (FaSSCoF) at pH 6.5", "type": "physicochemical", "details": "pH 6.5, 25° C.; for solubility thermodynamic at 24 h: fasted-state simulated colonic fluid (FaSSCoF), 25 °C, pH 6.5, fassgf or other biorelevant, thermodynamic from solid", "protocol": "The solubilities of compounds of the invention in FaSSCoF at pH 6.5 are determined using a modification of a previously-reported procedure (Vertzoni, M., et al. Pharm. Res. 2010, 27, 2187-2196). In place of the bile salt extract employed in the original procedure (which extract is no longer available), the modified procedure uses a mixture of sodium taurocholate (0.15 g), glycocholic acid (0.15 g), ursodeoxycholic acid (0.05 g), cholic acid (0.05 g), and glycodeoxycholic acid (0.05 g). These five bile acids are ground together with a mortar and pestle to produce a fine white powder that is incorporated into the FaSSCoF, as outlined below.\nFaSSCoF medium: Tris(hydroxymethyl)aminomethane (Tris; 0.275 g) and maleic acid (0.44 g) are dissolved in water (35 mL) to give a solution whose pH is adjusted to 6.5 by treatment with 0.5M NaOH (ca. 12 mL). The solution is then made up to 50 mL with water. A portion of this Tris/maleate buffer solution (ca. 25 mL) is added to a 0.5 L round-bottomed flask, before being treated with 0.00565 g of the bile acid mixture described above. Solutions of phosphatidylcholine (0.0111 g) in DCM (0.15 mL) and palmitic acid (0.0013 g) in DCM (0.15 mL) are added, then the organic solvent is evaporated off under reduced pressure at 40° C. until a clear solution, with no perceptible DCM odour, is achieved. The volume of the evaporated solution is adjusted to 50 mL by addition of the remainder of Tris/maleate buffer, then BSA (0.115 g) is added, before being dissolved by gentle agitation.\nSolubility Determination: Test compounds are suspended in the pH 6.5 FaSSCoF medium to give a maximum final concentration of 2-10 mg/mL. The suspensions are equilibrated at 25° C. for 24 h, before being filtered through a glass fibre C filter. The filtrates are then diluted as appropriate for injection and quantification by HPLC with reference to a standard. Different volumes of the standard, diluted and undiluted sample solutions are injected and the solubilities are calculated using the peak areas determined by integration of the peak found at the same retention time as the principal peak in the standard injection."}, "[2]": {"assay": "Microcentrifuge dissolution test 1): transfer from intestinal buffer (IB) to colonic buffer (CB)", "type": "physicochemical", "details": "for Concentration, CB Timepoint 4 min: pH 7.2, 4 min; for Concentration, CB Timepoint 10 min: pH 7.2, 10 min; for Concentration, CB Timepoint 20 min: pH 7.2, 20 min; for Concentration, CB Timepoint 40 min: pH 7.2, 40 min; for Concentration, CB Timepoint 90 min: pH 7.2, 90 min; for Concentration, CB Timepoint 1,200 min: pH 7.2, 1,200 min; for Concentration, IB Timepoint −5 min / Concentration, IB Timepoint −15 min / Concentration, IB Timepoint −25 min: PBS pH 6.5, 37° C.; for Additional concentration, UCF Timepoint 90 min / Additional concentration, UCF Timepoint 1,200 min: after ultracentrifugation (free drug + drug in micelles); for Additional concentration, UCF Timepoint 90 min: CB pH 7.2, 90 min; for Additional concentration, UCF Timepoint 1,200 min: CB pH 7.2, 1,200 min", "protocol": "In vitro non-sink dissolution performance of the Compound of Example 3 was evaluated alongside Reference Compounds A and B employing microcentrifuge dissolution tests in which samples were either 1) transferred from intestinal buffer (IB) to colonic buffer (CB) or 2) dosed directly into intestinal media containing simulated bile-salt micelles (IB-SIF). Dissolution performance of the compounds at various timepoints was determined by centrifugation and analysis of the supernatant concentrations by off-line reverse-phase HPLC analysis.\nTest compounds (0.45 mg±0.05 mg) were weighed into a microcentrifuge tube, then 0.900 mL of IB receptor solution—phosphate buffered saline (PBS) warmed to 37° C. at pH 6.5—was added. A timer was started and the sample tubes were vortexed at the maximum setting for 1 minute. When the timer read 3, 13 and 23 min—corresponding to the 25, 15 and 5 min timepoints, respectively—the sample tubes were centrifuged for 1 min at 15,800 Relative Centrifugal Force (RCF). At each timepoint, a portion of the supernatant (50 μL) was added to diluent {250 μL of 75/25 THF/Water (v/v)} and the compound concentrations were measured by off-line HPLC analysis (Table 6a). After a further 5 min, 0.900 mL of CB receptor solution—pH 10.7 PBS solution—was added, such that the pH was adjusted to 7.2, and the timer was reset to 0 min. When the timer read 2, 8, 18, 38, 88 and 1,198 min—corresponding to the 4, 10, 20, 40, 90 and 1,200 min timepoints, respectively—the sample tubes were centrifuged for 1 min at 15,800 RCF. At each timepoint, a portion of the supernatant (50 μL) was added to diluent {250 μL of 75/25 THF/Water (v/v)} and the compound concentrations were measured by off-line HPLC analysis (Table 6a). The HPLC samples for the 90 and 1,200 min timepoints were additionally centrifuged for 8 min at 80,000 rpm at 37° C. in an ultracentrifuge (UCF), then the supernatant (50 μL) was added to diluent {250 μL of 75/25 THF/Water (v/v)} and the compound concentrations were measured by off-line HPLC analysis (Table 6b) to determine the concentration of free drug+drug in micelles."}, "[3]": {"assay": "Microcentrifuge dissolution test 1): transfer from intestinal buffer (IB) to colonic buffer (CB)", "type": "physicochemical", "details": "PBS pH 6.5, 37° C."}, "[4]": {"test_system": "SCID mice injected with CD45RBhigh cells", "assay": "Adoptive transfer in mice (T cell driven model of colonic inflammation; assay (v))", "type": "in vivo", "details": "for % Inhibition (of induction window between naïve and vehicle animals, colon weight:length) / Colon weight:length: 3 mg/kg BID oral gavage, day 14 to day 49 (Reference Compound A lowered to 0.6 mg/kg on day 27)", "protocol": "On Study day 0, female Balb/C mice are terminated and spleens obtained for CD45RB^high cell isolation (Using SCID IBD cell Separation protocol). Approximately 4×10^5 cells/mL CD45RB^high cells are then injected intraperitoneally (100 μL/mouse) into female SCID animals. On study day 14, mice are weighed and random/zed into treatment groups based on body weight. On Day 14, compounds are administered BID, via oral gavage, in 5% polyoxyethylene 40 stearate in 20 mM pH 7.8 aqueous phosphate buffer in a dose volume of 5 mL/kg. Treatment continues until study day 49, at which point the animals are necropsied 4 hours after the morning administration. The colon length and weight are recorded and used as a secondary endpoint in the study as a measurement of colon oedema. The colon is then divided into six cross-sections, four of which are used for histopathology scoring (primary endpoint) and two are homogenised for cytokine analysis. Data shown is the % inhibition of the induction window between naïve animals and vehicle animals, where higher inhibition implies closer to the non-diseased, naïve, phenotype."}, "[5]": {"details": "Run 1, read-out: pH 6.5 FaSSCoF Solubility Run 1"}, "[6]": {"details": "Run 2, read-out: pH 6.5 FaSSCoF Solubility Run 2"}}, "note": "Read-outs that look alike come from different tables or passages of the source."}
{"smiles": "COc1cc(Nc2nccc(Oc3ccc(NC(=O)Nc4cc(C(C)(C)C)cc(NS(C)(=O)=O)c4OC)c4ccccc34)n2)cc(OCCOCCOCCC(=O)O)c1", "note": "[Reference Compound A, 3-(2-(2-(3-((4-((4-(3-(5-(tert-butyl)-2-methoxy-3-(methylsulfonamido)phenyl)ureido)naphthalen-1-yl)oxy)-pyrimidin-2-yl)amino)-5-methoxyphenoxy)ethoxy)ethoxy)propanoic acid]", "values": [{"measurement": "pH 6.5 FaSSCoF Solubility Run 1", "setting": "[1]; 24 h, Run 1", "result": 0.007, "unit": "mg/mL"}, {"measurement": "pH 6.5 FaSSCoF Solubility Run 2", "setting": "[1]; 24 h, Run 2", "result": 0.007, "unit": "mg/mL"}, {"measurement": "Concentration, CB Timepoint 4 min", "setting": "[2]", "result": 11400, "unit": "ng/mL"}, {"measurement": "Concentration, CB Timepoint 10 min", "setting": "[2]", "result": 11500, "unit": "ng/mL"}, {"measurement": "Concentration, CB Timepoint 20 min", "setting": "[2]", "result": 10700, "unit": "ng/mL"}, {"measurement": "Concentration, CB Timepoint 40 min", "setting": "[2]", "result": 10700, "unit": "ng/mL"}, {"measurement": "Concentration, CB Timepoint 90 min", "setting": "[2]", "result": 8400, "unit": "ng/mL"}, {"measurement": "Concentration, CB Timepoint 1,200 min", "setting": "[2]", "result": 7900, "unit": "ng/mL"}, {"measurement": "Concentration, IB Timepoint −5 min", "setting": "[2]", "result": 5300, "unit": "ng/mL"}, {"measurement": "Concentration, IB Timepoint −15 min", "setting": "[2]", "result": 4600, "unit": "ng/mL"}, {"measurement": "Concentration, IB Timepoint −25 min", "setting": "[2]", "result": 2900, "unit": "ng/mL"}, {"measurement": "Additional concentration, UCF Timepoint 90 min", "setting": "[2]", "result": 5.1, "unit": "µg/mL"}, {"measurement": "Additional concentration, UCF Timepoint 1,200 min", "setting": "[2]", "result": 3.9, "unit": "µg/mL"}, {"measurement": "Concentration, IB Timepoint −30 min", "setting": "[3]", "result": 0, "unit": "ng/mL"}, {"measurement": "% Inhibition (of induction window between naïve and vehicle animals, colon weight:length)", "setting": "[4]", "result": "−14", "unit": "%"}, {"measurement": "Colon weight:length", "setting": "[4]", "result": "0.047 ± 0.007"}]}
{"smiles": "C#Cc1cc(Nc2nccc(Oc3ccc(NC(=O)Nc4cc(C(C)(C)C)nn4-c4ccc(C)cc4)c4ccccc34)n2)cc(C(=O)NCCOCCOCCOC)c1", "note": "[Reference Compound B, 3-((4-((4-(3-(3-(tert-butyl)-1-(p-tolyl)-1H-pyrazol-5-yl)ureido)naphthalen-1-yl)oxy)pyrimidin-2-yl)amino)-5-ethynyl-N-(2-(2-(2-methoxyethoxy)ethoxy)ethyl)benzamide]", "values": [{"measurement": "solubility thermodynamic at 24 h", "setting": "[1]; [5]", "result": "< 1", "unit": "µg/mL"}, {"measurement": "solubility thermodynamic at 24 h", "setting": "[1]; [6]", "result": "< 1", "unit": "µg/mL"}, {"measurement": "Concentration, CB Timepoint 4 min", "setting": "[2]", "result": 5000, "unit": "ng/mL"}, {"measurement": "Concentration, CB Timepoint 10 min", "setting": "[2]", "result": 1900, "unit": "ng/mL"}, {"measurement": "Concentration, CB Timepoint 20 min", "setting": "[2]", "result": 900, "unit": "ng/mL"}, {"measurement": "Concentration, CB Timepoint 40 min", "setting": "[2]", "result": 600, "unit": "ng/mL"}, {"measurement": "Concentration, CB Timepoint 90 min", "setting": "[2]", "result": 0, "unit": "ng/mL"}, {"measurement": "Concentration, CB Timepoint 1,200 min", "setting": "[2]", "result": 4900, "unit": "ng/mL"}, {"measurement": "Concentration, IB Timepoint −5 min", "setting": "[2]", "result": 2200, "unit": "ng/mL"}, {"measurement": "Concentration, IB Timepoint −15 min", "setting": "[2]", "result": 1000, "unit": "ng/mL"}, {"measurement": "Concentration, IB Timepoint −25 min", "setting": "[2]", "result": 1900, "unit": "ng/mL"}, {"measurement": "Additional concentration, UCF Timepoint 90 min", "setting": "[2]", "result": 0.0, "unit": "µg/mL"}, {"measurement": "Additional concentration, UCF Timepoint 1,200 min", "setting": "[2]", "result": 1.6, "unit": "µg/mL"}, {"measurement": "Concentration, IB Timepoint −30 min", "setting": "[3]", "result": 0, "unit": "ng/mL"}, {"measurement": "% Inhibition (of induction window between naïve and vehicle animals, colon weight:length)", "setting": "[4]", "result": 11, "unit": "%"}, {"measurement": "Colon weight:length", "setting": "[4]", "result": "0.041 ± 0.005"}]}
{"smiles": "COc1cc(Nc2cc(Oc3ccc(NC(=O)Nc4cc(C(C)(C)C)cc(NS(C)(=O)=O)c4OC)c4ccccc34)ccn2)cc(OCCOCCOCC(=O)O)c1", "note": "[Example 3]", "values": [{"measurement": "solubility thermodynamic at 24 h", "setting": "[1]; [5]", "result": 280, "unit": "µg/mL"}, {"measurement": "solubility thermodynamic at 24 h", "setting": "[1]; [6]", "result": 200, "unit": "µg/mL"}, {"measurement": "Concentration, CB Timepoint 4 min", "setting": "[2]", "result": 9300, "unit": "ng/mL"}, {"measurement": "Concentration, CB Timepoint 10 min", "setting": "[2]", "result": 9100, "unit": "ng/mL"}, {"measurement": "Concentration, CB Timepoint 20 min", "setting": "[2]", "result": 14300, "unit": "ng/mL"}, {"measurement": "Concentration, CB Timepoint 40 min", "setting": "[2]", "result": 48300, "unit": "ng/mL"}, {"measurement": "Concentration, CB Timepoint 90 min", "setting": "[2]", "result": 60700, "unit": "ng/mL"}, {"measurement": "Concentration, CB Timepoint 1,200 min", "setting": "[2]", "result": 85400, "unit": "ng/mL"}, {"measurement": "Concentration, IB Timepoint −5 min", "setting": "[2]", "result": 8500, "unit": "ng/mL"}, {"measurement": "Concentration, IB Timepoint −15 min", "setting": "[2]", "result": 7500, "unit": "ng/mL"}, {"measurement": "Concentration, IB Timepoint −25 min", "setting": "[2]", "result": 5300, "unit": "ng/mL"}, {"measurement": "Additional concentration, UCF Timepoint 90 min", "setting": "[2]", "result": 34.1, "unit": "µg/mL"}, {"measurement": "Additional concentration, UCF Timepoint 1,200 min", "setting": "[2]", "result": 74.9, "unit": "µg/mL"}, {"measurement": "Concentration, IB Timepoint −30 min", "setting": "[3]", "result": 0, "unit": "ng/mL"}, {"measurement": "% Inhibition (of induction window between naïve and vehicle animals, colon weight:length)", "setting": "[4]", "result": 49, "unit": "%"}, {"measurement": "Colon weight:length", "setting": "[4]", "result": "0.032 ± 0.004"}, {"measurement": "Activity compared to the two Reference Compounds (colon weight to length ratio)", "setting": "[4]; simple aqueous-based vehicle", "result": "superior activity"}]}
